Assay results as given in EP0781773A1, “NOVEL CARBAPENEM DERIVATIVE” (BANYU PHARMACEUTICAL CO., LTD., priority 1994, dated 1996).
Converted amounts (≈) assume the structure as drawn. “And” between values parts separate entries of the source, which are not always exact repeats. Equal entries are not always repeated.

How the values were obtained:
ICR male mice = assay: Acute toxicity in mice; assay type: in vivo; details: once into the tail vein, observed 5 days
Method: The compound of Example I-26 was used as a representative compound. The test compound was diluted with distilled water for injection so that the drug liquid concentration became 60.75 mg/ml, and administered once, in an administration rate of 10 to 20 µl/min, into the tail vein of each of 4-week-old ICR male mice, according to "Commentary on GLP Standard and Toxicity Test Method Guidline" (supervised by the Examination Section, Drug Secretariat, the Ministry of Welfare; Yakuji-Nippo Co.). The state of death and the general symptoms of mobility were observed over a period of 5 days after the administration.

P.mirabilis MB4955 = assay: In vitro antibacterial activity, agar plate dilution method (MIC); assay type: cell-based; details: Proteus mirabilis, MH agar, inoculum 10^6CFU/ml, 37 °C, 16 hours, read-out: Minimum inhibitory Concentration (MIC)
Method: (§1) One platinum loopful (inoculum : 10^6CFU/ml) of each test microorganism cultured overnight in Mueller Hinton broth was inoculated into Mueller Hinton agars (MH agar). These media contained an antimicrobial agent in various concentrations. Each test microorganism was cultured at 37 °C for 16 hours, and then the minimum inhibitory concentration (MIC: µg/ml) was assayed. Accordingly, the minimum inhibitory concentrations of compounds of the invention were assayed.

S.aureus BB5939 = assay: as above; assay type: cell-based; details: Staphylococcus aureus; S.aureus BB5939 (β-lactamase-producing bacterium); MH agar, inoculum 10^6CFU/ml, 37 °C, 16 hours; read-out: Minimum inhibitory Concentration (MIC)
Method: as §1

S.aureus MB4970 = assay: as above; assay type: cell-based; details: Staphylococcus aureus, MH agar, inoculum 10^6CFU/ml, 37 °C, 16 hours, read-out: Minimum inhibitory Concentration (MIC)
Method: as §1

S.aureus JS1 = assay: as above; assay type: cell-based; details: Staphylococcus aureus, MH agar, inoculum 10^6CFU/ml, 37 °C, 16 hours, read-out: Minimum inhibitory Concentration (MIC)
Method: as §1

SD rats = assay: Toxicity test on the central nervous system in rats; details: 200 µg/rat into the lateral ventricle, n=5, observed for 30 minutes
From the text: A chronic guide cannula was inserted into the right lateral ventricle of each of 7-week-old male SD rats (n=5), and fixed by a dental range.

S.aureus MB5393 = assay: Agar plate dilution method (MIC), media supplemented with 2 % sodium chloride; assay type: cell-based; details: Staphylococcus aureus, 35 °C, 48 hours, read-out: Minimum inhibitory Concentration (MIC)
Method: (§2) One platinum loopful (inoculum : 10^6CFU/ml) of each test microorganism cultured overnight in Mueller Hinton broth was inoculated into Mueller Hinton agars (MH agar). These media contained an antimicrobial agent in various concentrations. […] Accordingly, the minimum inhibitory concentrations of compounds of the invention were assayed. Table 1 The minimum inhibitory concentrations (MIC: µg/ml) of compounds of the invention were assayed according to the above agar plate dilution method using the media supplemented with 2 % sodium chloride as test media and using the culture conditions of 35 °C and 48 hours.

S.aureus CSa929 = assay: as above; assay type: cell-based; details: Staphylococcus aureus, 35 °C, 48 hours, read-out: Minimum inhibitory Concentration (MIC)
Method: as §2

white rabbits = assay: Renal toxicity test using white rabbits; assay type: in vivo; details: for Blood urea nitrogen before administration / Creatinine before administration: just before the administration (baseline)
Method: The compound of Example I-72 was made into a liquid with sterilized distilled water for injection so that the drug liquid concentration became 10 %, and intraperitoneally administered once in a dose of 225 mg/kg into 18-week-old male white rabbits from Japan (n=3 per each group). As for a control group, 0.9 % physiological saline was intraperitoneally administered once in the same manner as above. Serum urea nitrogen and creatinine were assayed just before the administration and about 48 hours after the administration. After the blood drawing, each rabbit was killed with leaving them alone under anesthetization and roughly observed, and then autopsy was carried out only on the kidney fixed with neutral 10 % formalin buffer. Each kidney preparation was prepared by a usual method, stained with hematoxylin and eosin and observed by a microscope.

[1] = Mean, n=3, about 48 hours after 225 mg/kg intraperitoneally once
[2] = individual rabbit, about 48 hours after 225 mg/kg intraperitoneally once
[3] = individual rabbit, 225 mg/kg intraperitoneally once, 225 mg/kg

Compound | MIC (P.mirabilis MB4955) [µg/mL] | MIC (S.aureus BB5939) [µg/mL] | MIC (S.aureus MB4970) [µg/mL] | MIC (S.aureus JS1) [µg/mL] | other results
C[C@@H](O)[C@H]1C(=O)N2C(C(=O)O)=C(SC(=S)N3CCCC(O)CC3)[C@H](C)[C@H]12 (stereo partly drawn) [Example I-26] | 0.05 (≈ 0.125 µM) | 0.78 (≈ 1.95 µM) | 0.012 (≈ 0.03 µM) | 0.2 (≈ 0.499 µM) | General symptoms of mobility (ICR male mice; 1000 mg/kg): No abnomality; Surviving number (ICR male mice; 1000 mg/kg): 2/2; General symptoms of mobility (ICR male mice; 1500 mg/kg): No abnomality; Surviving number (ICR male mice; 1500 mg/kg): 2/2; General symptoms of mobility (ICR male mice; 2000 mg/kg): No abnomality; Surviving number (ICR male mice; 2000 mg/kg): 1/1; Case of death (SD rats): 0/5
C[C@@H](O)[C@H]1C(=O)N2C(C(=O)O)=C(SC(=S)N(C)C)[C@H](C)[C@H]12 [Example I-63] | 0.1 (≈ 0.303 µM) | 1.56 (≈ 4.72 µM) | 25 (≈ 75.7 µM) | 0.2 (≈ 0.605 µM) | 
CNCC(=O)N1CCN(C(=S)SC2=C(C(=O)O)N3C(=O)[C@H]([C@@H](C)O)[C@H]3[C@H]2C)CC1 [Example I-41] | 0.1 (≈ 0.226 µM) | 0.39 (≈ 0.881 µM) | ≤ 0.006 | 0.1 (≈ 0.226 µM) | 
C[C@@H](O)[C@H]1C(=O)N2C(C(=O)O)=C(SC(=S)N3CCc4ccccc43)[C@H](C)[C@H]12 [Example I-51] |  |  |  |  | MIC (S.aureus MB5393): 0.39 µg/mL (≈ 0.964 µM); MIC (S.aureus CSa929): 0.39 µg/mL (≈ 0.964 µM)
C[C@@H](O)[C@H]1C(=O)N2C(C(=O)O)=C(SC(=S)N(C)CCO)[C@H](C)[C@H]12 [Example I-72] | 0.05 (≈ 0.139 µM) | 1.56 (≈ 4.33 µM) | 0.025 (≈ 0.0694 µM) | 0.1 (≈ 0.277 µM) | Blood urea nitrogen after administration (white rabbits; [1]): 18.1 mg/dL; Creatinine after administration (white rabbits; [1]): 1.4 mg/dL; Blood urea nitrogen before administration (white rabbits; Mean, n=3): 17.4 mg/dL; Creatinine before administration (white rabbits; Mean, n=3): 1.3 mg/dL; Blood urea nitrogen after administration (white rabbits; [2]): 16.8 mg/dL and 16.6 mg/dL and 20.8 mg/dL; Creatinine after administration (white rabbits; [2]): 1.3 mg/dl (2×) and 1.5 mg/dl; Blood urea nitrogen before administration (white rabbits; [3]): 15.8 mg/dL and 16.8 mg/dL and 19.6 mg/dL; Creatinine before administration (white rabbits; [3]): 1.2 mg/dL and 1.3 mg/dL and 1.4 mg/dL; Opinion based on the autopsy (white rabbits; individual rabbit, kidney, about 48 hours after 225 mg/kg intraperitoneally once): no abnormality
C[C@@H](O)[C@H]1C(=O)N2C(C(=O)O)=C(SC(=S)N3Cc4ccc(C[N+]56CC[N+](CC(N)=O)(CC5)CC6)cc4C3)[C@H](C)[C@H]12 [Example III-2] | 0.2 | 0.39 | ≤ 0.006 | 0.1 | 
C[C@@H](O)[C@H]1C(=O)N2C(C(=O)O)=C(SC(=S)N3CC=C(CN)CC3)[C@H](C)[C@H]12 [Example IV-5] | 0.05 (≈ 0.126 µM) | 0.39 (≈ 0.981 µM) | ≤ 0.006 | 0.1 (≈ 0.252 µM) | 
